According to ChEMBL document CHEMBL1201862, “PubChem BioAssay data set” (2004):
“And” between values parts separate entries of the source, which are not always exact repeats. Equal values may be shown once.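 Method: 48-hour compound exposure of cells in 96-well plates, five concentrations, linear interpolation of endpoints. GI50: concentration for 50% inhibition of growth.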 The source made the active and inactive calls. No stated cut-off is given here; in the data, active = GI50 up to about 1.1 µM and inactive = higher.

Experiments:
Experiment in all cases: NCI-60 cell line screen, 48 h
786-0 = test system: 786-0
A498 = test system: A498
A549 = test system: A549
ACHN = test system: ACHN
COLO 205 = test system: COLO 205
DU-145 = test system: DU-145
HOP-92 = test system: HOP-92
IGROV-1 = test system: IGROV-1
KM12 = test system: KM12
MOLT-4 = test system: MOLT-4
OVCAR-3 = test system: OVCAR-3
OVCAR-8 = test system: OVCAR-8
SF-268 = test system: SF-268
SF-295 = test system: SF-295
SK-MEL-2 = test system: SK-MEL-2
SK-OV-3 = test system: SK-OV-3
U-251 = test system: U-251
M14 = test system: M14
MDA-MB-435 = test system: MDA-MB-435
NCI/ADR-RES = test system: NCI/ADR-RES

Measured: GI50

COC(=O)[C@@H]1[C@H](O)[C@H](C)[C@H](O)[C@@](C)(O)/C=C\C=C(\C)C(=O)Nc2c(C)c(OC(C)=O)c3c(c2O)C(=O)C(C)=C2OCOC(=C23)/C(C)=C/[C@@](C)(O)[C@H](O)[C@@H](C)[C@H]1OC(C)=O
inactive: 786-0 > 100 µM and 69.5 µM | A498 > 66.8 µM | A549 43.3 µM | ACHN 79.4 µM | COLO 205 72.9 µM and 14.6 µM | DU-145 > 66.8 µM | HOP-92 > 66.8 µM | IGROV-1 > 100 µM and 53 µM | KM12 47.8 µM | MOLT-4 27.7 µM and 61.7 µM | OVCAR-3 43.1 µM and 32 µM | OVCAR-8 31.8 µM | SF-268 4.76 µM | SF-295 88.5 µM | SK-MEL-2 37.2 µM | SK-OV-3 82.2 µM | U-251 17.3 µM

COCC1OCCN1C (stereo not given)
inactive: 786-0 > 100 µM | A498 > 100 µM | A549 > 100 µM | ACHN > 100 µM | COLO 205 > 100 µM | HOP-92 > 100 µM | IGROV-1 > 100 µM | KM12 88.3 µM | M14 > 100 µM | MDA-MB-435 > 100 µM | MOLT-4 > 100 µM | NCI/ADR-RES > 100 µM | OVCAR-3 > 100 µM | OVCAR-8 > 100 µM | SF-268 > 100 µM | SF-295 > 100 µM | SK-MEL-2 > 100 µM | SK-OV-3 > 100 µM | U-251 > 100 µM

COC(C)(C)[C@@H]1CCCN1C1=C(C)C(=O)OC1
inactive: 786-0 > 100 µM | ACHN > 100 µM | COLO 205 > 100 µM | DU-145 > 100 µM | IGROV-1 > 100 µM | MOLT-4 > 100 µM | NCI/ADR-RES > 100 µM | SF-268 > 100 µM | SF-295 > 100 µM | SK-MEL-2 > 100 µM | SK-OV-3 > 100 µM | U-251 > 100 µM

Nc1[nH]c(=O)[nH]c(=O)c1Cc1cccc(Cl)c1
inactive: 786-0 > 100 µM | A498 > 100 µM | A549 > 100 µM | ACHN > 100 µM | COLO 205 > 100 µM | HOP-92 36.3 µM | IGROV-1 56.9 µM | KM12 80.5 µM | M14 84.9 µM | MDA-MB-435 44 µM | NCI/ADR-RES > 100 µM | OVCAR-3 > 100 µM | OVCAR-8 > 100 µM | SF-268 38.3 µM | SF-295 > 100 µM | SK-MEL-2 71.9 µM | SK-OV-3 > 100 µM | U-251 > 100 µM

COc1ccccc1NC(=O)C(=O)C(C#N)CC(C)(C)C=O (stereo not given)
inactive: 786-0 > 100 µM | A498 > 100 µM | A549 > 100 µM | ACHN > 100 µM | HOP-92 > 100 µM | IGROV-1 > 100 µM | KM12 > 100 µM | M14 > 100 µM | MDA-MB-435 > 100 µM | MOLT-4 > 100 µM | NCI/ADR-RES > 100 µM | OVCAR-3 > 100 µM | OVCAR-8 > 100 µM | SF-268 > 100 µM | SF-295 > 100 µM | SK-MEL-2 > 100 µM | SK-OV-3 > 100 µM | U-251 > 100 µM

NNC(=S)N/N=C(\CC1OC(=O)c2ccccc21)c1ccccc1O (stereo not given)
inactive: 786-0 43.3 µM | A498 33.7 µM | A549 64.3 µM | ACHN 59.3 µM | COLO 205 47 µM | HOP-92 70.8 µM | IGROV-1 38 µM | KM12 40.4 µM | M14 61.9 µM | MOLT-4 23 µM | OVCAR-3 37.5 µM | OVCAR-8 30.8 µM | SF-268 50 µM | SF-295 20.3 µM | SK-MEL-2 26.8 µM | SK-OV-3 > 100 µM | U-251 17.3 µM

O=C1CCNC(=O)NC1
inactive: 786-0 > 100 µM | A498 > 100 µM | A549 > 100 µM | ACHN > 100 µM | COLO 205 > 100 µM | HOP-92 > 100 µM | IGROV-1 > 100 µM | KM12 > 100 µM | M14 > 100 µM | MOLT-4 23.1 µM | OVCAR-3 > 100 µM | OVCAR-8 > 100 µM | SF-268 > 100 µM | SF-295 > 100 µM | SK-MEL-2 > 100 µM | SK-OV-3 > 100 µM | U-251 > 100 µM

CCOC(=O)C1C(=O)C(C(=O)OCC)C(c2ccccc2)N(C)C1c1ccccc1 (stereo not given)
inactive: 786-0 > 100 µM | A498 > 100 µM | A549 > 100 µM | ACHN > 100 µM | COLO 205 > 100 µM | HOP-92 > 100 µM | IGROV-1 > 100 µM | KM12 > 100 µM | M14 > 100 µM | MOLT-4 49.5 µM | OVCAR-3 > 100 µM | OVCAR-8 > 100 µM | SF-268 > 100 µM | SF-295 > 100 µM | SK-MEL-2 > 100 µM | SK-OV-3 > 100 µM | U-251 95.9 µM
